Data on 15 molecules can be found in patent publication US20040241152A1, “Methods for inducing an immune response with an elevated th1/th2 ratio, by intracellular induction of nfkappab” (priority 2001, published 2004).

B1: CD54: costimulatory molecule incorporated into DNA vaccines (protein, UniProt P05362 28-532, looked up)
Intercellular adhesion …: QTSVSPSKVILPRGGSVLVTCSTSCDQPKLLGIETPLPKKELLLPGNNRKVYELSNVQEDSQPMCYSNCPDGQSTAKTFLTVYWTPERVELAPLPSWQPVGKNLTLRCQVEGGAPRANLTVVLLRGEKELKREPAVGEPAEVTTTVLVRRDHHGANFSCRTELDLRPQGLELFENTSAPYQLQTFVLPATPPQLVSPRVLEVDTQGTVVCSLDGLFPVSEAQVHLALGDQRLNPTVTYGNDSFSAKASVSVTAEDEGTQRLTCAVILGNQSQETLQTVTIYSFPAPNVILTKPEVSEGTEVTVKCEAHPRAKVTLNGVPAQPLGPRAQLLLKATPEDNGRSFSCSATLEVAGQLIHKNQTRELRVLYGPRLDERDCPGNWTWPENSQQTPMCQAWGNPLPELKCLKDGTFPLPIGESVTVTRDLEGTYLCRARSTQGEVTRKVTVNVLSPRYEIVIITVVAAAVIMGTAGLSTYLYNRQRKIKKYRLQQAQKGTPMKPNTQATPP
B2: IL-7: cytokine incorporated into DNA vaccines (protein, UniProt P13232 26-177, looked up)
Interleukin-7: DCDIEGKDGKQYESVLMVSIDQLLDSMKEIGSNCLNNEFNFFKRHICDANKEGMFLFRAARKLRQFLKMNSTGDFDLHLLKVSEGTTILLNCTGQVKGRKPAALGEAQPTKSLEENKSLKEQKKLNDLCFLKRLLQEIKTCWNKILMGTKEH
B3: LFA-3: costimulatory molecule incorporated into DNA vaccines (protein, UniProt P19256 29-250, looked up)
Lymphocyte …: FSQQIYGVVYGNVTFHVPSNVPLKEVLWKKQKDKVAELENSEFRAFSSFKNRVYLDTVSGSLTIYNLTSSDEDEYEMESPNITDTMKFFLYVLESLPSPTLTCALTNGSIEVQCMIPEHYNSHRGLIMYSWDCPMEQCKRNSTSIYFKMENDLPQKIQCTLSNPLFNTTSSIILTTCIPSSGHSRHRYALIPIPLAVITTCIVLYMNGILKCDRKPDRTNSN
B4: CD80: costimulatory molecule incorporated into DNA vaccines (protein, UniProt P33681 35-288, looked up)
T-lymphocyte activation …: VIHVTKEVKEVATLSCGHNVSVEELAQTRIYWQKEKKMVLTMMSGDMNIWPEYKNRTIFDITNNLSIVILALRPSDEGTYECVVLKYEKDAFKREHLAEVTLSVKADFPTPSISDFEIPTSNIRRIICSTSGGFPEPHLSWLENGEELNAINTTVSQDPETELYAVSSKLDFNMTTNHSFMCLIKYGHLRVNQTFNWNTTKQEHFPDNLLPSWAITLISVNGIFVICCLTYCFAPRCRERRRNERLRRESVRPV
B5: CD40L: costimulatory molecule incorporated into DNA vaccines (protein, UniProt P29965 113-261, looked up)
CD40 ligand, soluble form: MQKGDQNPQIAAHVISEASSKTTSVLQWAEKGYYTMSNNLVTLENGKQLTVKRQGLYYIYAQVTFCSNREASSQAPFIASLCLKSPGRFERILLRAANTHSSAKPCGQQSIHLGGVFELQPGASVFVNVTDPSQVSHGTGFTSFGLLKL
B6: CD86: costimulatory molecule incorporated into DNA vaccines (protein, UniProt P42081 24-329, looked up)
T-lymphocyte activation …: APLKIQAYFNETADLPCQFANSQNQSLSELVVFWQDQENLVLNEVYLGKEKFDSVHSKYMGRTSFDSDSWTLRLHNLQIKDKGLYQCIIHHKKPTGMIRIHQMNSELSVLANFSQPEIVPISNITENVYINLTCSSIHGYPEPKKMSVLLRTKNSTIEYDGVMQKSQDNVTELYDVSISLSVSFPDVTSNMTIFCILETDKTRLLSSPFSIELEDPQPPPDHIPWITAVLPTVIICVMVFCLILWKWKKKKRPRNSYKCGTNTMEREESEQTKKREKIHIPERSDEAQRVFKSSKTSSCDKSDTCF

One assay deals with mice.
Assay: not given
The settings on record: gene incorporated into allergen DNA vector; cited from earlier work.
For the molecule “IL-18: cytokine (gene) incorporated into DNA vaccines”, the airway hyperresponsiveness result is reported as “successfully reverse airway hyperresponsiveness”.

The next assay deals with CD14+ peripheral blood monocytes cultured to DC. Nature of the assay: Maturation of monocyte-derived dendritic cells to CD83+ cells. It is filed as cell-based. The settings on record: 15 ng/ml, within 1 day. As to the method: CD14^+ peripheral blood monocytes are adhered to tissue culture flasks and cultured in the presence of 1% AB serum, GM-CSF (400 ng/ml) and IL-4 (400 IU/ml) for 7 days. This yields cells with the morphology of DC and a mean of 49% with the CD1a^+ marker which is indicative of the immature form of the DC capable of taking up and presenting antigen. These cells are then matured to CD83^+ cells by the addition of TNFα (15 ng/ml), which enables the DC to present antigen to cytotoxic T-cells. 7% of the cells become CD83^+ within 1 day, but 3 days at least are required for maximum effect. It is possible that monocyte conditioned medium could replace the 1% AB serum but this is probably not desirable.
Turning to TNFα, the “cells becoming CD83+” value turned out to be 7%.

The next assay has as its system NF-κB. Nature of the assay: Preliminary work: NF-κB induction and APC/DC function.
Details: not given
The assay is classed as cell-based.
In the case of MEKK1: kinase named as NF-κB inducer, the “induction of NF-κB and enhancement of APC/DC function” value is “can induce NF-κB and enhance APC such as DC function”.

System in the next assay: not given
Assay: not given
The settings on record: molecule incorporated into DNA vaccine; cited from earlier work.
Turning to “IL-5: cytokine incorporated into DNA vaccines”, the Antibody entry is given as “↑IgG”.

With “IL-18: cytokine (gene) incorporated into DNA vaccines”, the Antibody entry is listed as “↑IgG”, the CTL entry is on record as “↑CTL” and the Cellular response entry is “↑proliferation”.

For “IL-15: cytokine incorporated into DNA vaccines”, the Antibody entry was “IgG?”, the CTL result is on record as “↑CTL” and the Cellular response entry is reported as “±↑proliferation”.

For TGF-β, the Antibody result is recorded as “↑IgG1”.

For “IFNγ: cytokine incorporated into DNA vaccines”, the CTL entry was “↑CTL”.

Consider “CTLA4: costimulatory molecule incorporated into DNA vaccines”, for which the Cellular response entry was “↑proliferation”.

As to “GM-CSF: cytokine incorporated into DNA vaccines”, the CTL result was “↑CTL”.

For the molecule B1, the CTL entry is “↑CTL”.

B2: the Cellular response result is on record as “↑IFNγ”.

Turning to B3, the CTL entry was “↑CTL”.

B4: the CTL result is “↑CTL”.

Regarding B5, the CTL result is given as “↑CTL” and the Cellular response result was “↑IFNγ”.

Take B6: the CTL entry is given as “↑CTL”.
